The values that follow come from US4436751A, “Nitrobenzyl monates antibacterial compounds” (Beecham Group Limited, priority 1980, dated 1984).

≈ marks a conversion by molar mass, not a printed value. Like-named read-outs stand apart in the source and are kept apart here.

What all share (type): cell-based
For assay [1], the system named is M. pneumoniae ATCC 15492. Kind of assay: Anti-mycoplasmal MIC in vitro, Friis broth agarose (Table 1). The note with it: Mycoplasmoides pneumoniae, ATCC15492, 144 h.
The test system of assay [2] is E. coli ESS. Put plainly: Human bacteria MIC, nutrient agar with chocolated horse blood (Table 3). The note with it: Escherichia coli. The protocol: (§1) The values were determined by serial dilutions in nutrient agar with 5% chocolated horse blood after incubations for 18 hours at 37° C.
Assay [3] has as its system Haemophilus influenzae Wy21. The assay is described as above. The settings on record: nutrient agar 5% chocolated horse blood, 18 hours 37° C. As to the method: as §1
Assay [4] relates to mycoplasma organisms. Put plainly: Anti-mycoplasmal activity (summary). The note with it: in words. The protocol:
The values were determines in Friis broth solidified with 0.9% agarose. The inoculum was 10^3 to 10^5 C.F.U. and the MIC's were recorded after 6 days incubation at 37° C.

The test system of assay [5] is M1 -suiphneumoniae. Put plainly: Anti-mycoplasmal activity relative to O-nitrobenzyl monate A.
The test system of assay [6] is bacteria. Kind of assay: Antibacterial activity (summary). The settings on record: in words. As to the method:
The values were determined using a two fold serial dilutions in Diagnostic Sensitivity Test Agar with an inoculum of 10^4 organisms and incubation for 18 hours at 37° C.
as §1

For assay [7], the system named is Treponema hyodysenteriae B10. Kind of assay: MIC against Treponema hyodysenteriae, horse blood agar (Table 4). The settings on record: Brachyspira hyodysenteriae, 48 h; strain B10; 2 days 37° C. anaerobic; read-out: Minimum Inhibitory Concentration (MIC), inhibition of β-haemolysis. As to the method:
(§2) The value were obtained by the following method: The compound was incorporated in horse blood agar, inoculated (multi-point)with 0.001 ml of a 3 day growth of the test organism from base of a blood slope (+1 ml foetal calf serum) and incubated at 37° C. for 2 days under anaerobic conditions. The MIC was taken as the lowest concentration to inhibit β-haemolysis.

Assay [8] relates to Treponema hyodysenteriae P23. The assay is described as above. The note with it: Brachyspira hyodysenteriae, 48 h; strain P23; 2 days 37° C. anaerobic; read-out: Minimum Inhibitory Concentration (MIC), inhibition of β-haemolysis. The protocol:
as §2

The subject of assay [9] is Treponema hyodysenteriae S77/2. Described as above. The settings on record: Brachyspira hyodysenteriae, 48 h; strain S77/2; 2 days 37° C. anaerobic; read-out: Minimum Inhibitory Concentration (MIC), inhibition of β-haemolysis. As to the method: as §2
Assay [10] has as its system Treponema hyodysenteriae Navis. Described as above. The settings on record: Brachyspira hyodysenteriae, 48 h; strain Navis; 2 days 37° C. anaerobic; read-out: Minimum Inhibitory Concentration (MIC), inhibition of β-haemolysis. The protocol:
as §2

Assay [11] relates to Treponema hyodysenteriae S77/10. Described as above. The note with it: Brachyspira hyodysenteriae, 48 h; strain S77/10; 2 days 37° C. anaerobic; read-out: Minimum Inhibitory Concentration (MIC), inhibition of β-haemolysis. As to the method:
as §2

[12] abbreviates: M. pneumoniae ATCC 15492, in vitro, 6 days 37° C., read-out: MIC.
Setting [13] is: E. coli ESS, nutrient agar 5% chocolated horse blood, 18 hours 37° C., read-out: MIC.

As to `C/C(=C\C(=O)OCc1cc([N+](=O)[O-])cc([N+](=O)[O-])c1C)CC1OCC(CC2OC2C(C)C(C)O)C(O)C1O` (centres unmarked) [Example 7, 3,5-dinitro-2-methylbenzyl monate A], the MIC was found to be 2.5 mg/L (≈ 4.64 µM) in [1], 2.5 mg/L (≈ 4.64 µM) in [2] (18 h) and 1 mg/L (≈ 1.86 µM) in assay [3].

For `C/C(=C\C(=O)OC(C)c1ccc([N+](=O)[O-])cc1)CC1OCC(CC2OC2C(C)C(C)O)C(O)C1O` (centres unmarked) [Example 4, 1-(p-nitrophenyl)ethyl monate A], the MIC came to 10 mg/L (≈ 20.3 µM) in [1] (setting [12]) and 2.5 mg/L (≈ 5.07 µM) in assay [2] (setting [13]).

Consider `C/C(=C\C(=O)OCc1cccc([N+](=O)[O-])c1)CC1OCC(C/C=C/C(C)C(C)O)C(O)C1O` (centres unmarked) [Example 5, m-nitrobenzyl monate C], for which the MIC in assay [2] (setting [13]) was 10 mg/L (≈ 21.6 µM).

`C/C(=C\C(=O)OCc1ccc([N+](=O)[O-])cc1Cl)CC1OCC(CC2OC2C(C)C(C)O)C(O)C1O` (centres unmarked) [Example 11, 2-chloro-4-nitrobenzyl monate A]: in [1], the MIC is 2.5 mg/L (≈ 4.86 µM).

In the case of `C/C(=C\C(=O)OCc1cccc([N+](=O)[O-])c1)CC1OCC(CC2OC2C(C)C(C)O)C(O)C1O` (centres unmarked) [Example 2, m-nitrobenzyl monate A], the anti-mycoplasmal activity entry in assay [4] is given as “outstanding anti-mycoplasmal activity”. Further, the MIC in assay [1] (setting [12]) is 1 mg/L (≈ 2.09 µM); in assay [2] (setting [13]), 5 mg/L (≈ 10.4 µM). In addition, the “times more active than O-nitrobenzyl monate A” value in assay [5] is reported as “approximately 20 times”.

Take `C/C(=C\C(=O)OCc1ccc([N+](=O)[O-])cc1[N+](=O)[O-])CC1OCC(CC2OC2C(C)C(C)O)C(O)C1O` (centres unmarked) [Example 10, 2,4-dinitrobenzyl monate A]: the MIC amounted to 2.5 mg/L (≈ 4.77 µM) in assay [1], 2.5 mg/L (≈ 4.77 µM) in assay [2] (18 h) and 0.5 mg/L (≈ 0.953 µM) in assay [3].

Regarding `C/C(=C\C(=O)OCc1ccccc1[N+](=O)[O-])CC1OCC(CC2OC2C(C)C(C)O)C(O)C1O` (centres unmarked) [C, O--nitrobenzyl monate A, reference compound], the MIC in assay [1] (setting [12]) was determined as 5 mg/L (≈ 10.4 µM); in assay [2] (setting [13]) it was 2.5 mg/L (≈ 5.21 µM).

For `C/C(=C\C(=O)OC(C)c1cccc([N+](=O)[O-])c1)CC1OCC(CC2OC2C(C)C(C)O)C(O)C1O` (centres unmarked) [Example 3, 1-(m-nitrophenyl)ethyl monate A], the MIC in assay [1] worked out at 5 mg/L (≈ 10.1 µM); in [2] (setting [13]), 10 mg/L (≈ 20.3 µM).

The compound `C/C(=C\C(=O)OCc1cccc([N+](=O)[O-])c1C)CC1OCC(CC2OC2C(C)C(C)O)C(O)C1O` (centres unmarked) [Example 8, 2-methyl-3-nitrobenzyl monate A] had an MIC in assay [2] (18 h) of 1 mg/L (≈ 2.03 µM).

For the compound `C/C(=C\C(=O)OCc1ccc([N+](=O)[O-])c([N+](=O)[O-])c1)CC1OCC(CC2OC2C(C)C(C)O)C(O)C1O` (centres unmarked) [Example 9, 3,4-dinitrobenzyl monate A], the MIC amounted to 1 mg/L (≈ 1.91 µM) in [2] (18 h) and 0.25 mg/L (≈ 0.477 µM) in assay [3].

With `C/C(=C\C(=O)OCc1ccc([N+](=O)[O-])cc1)CC1OCC(CC2OC2C(C)C(C)O)C(O)C1O` (centres unmarked) [Example 1, p-nitrobenzyl monate A], the “antibacterial activity as compared to o-nitrobenzyl monate A” value in assay [6] was “outstanding antibacterial activity”. The MIC in [1] (setting [12]) was determined as 0.1 mg/L (≈ 0.209 µM); in assay [2] (setting [13]) it was 0.5 mg/L (≈ 1.04 µM); in assay [7], 2.5 mg/L (≈ 5.21 µM); in assay [8], 2.5 mg/L (≈ 5.21 µM); in assay [9], 2.5 mg/L (≈ 5.21 µM); in assay [10], 2.5 mg/L (≈ 5.21 µM). Moreover, the MIC in assay [11] worked out at 2.5 mg/L (≈ 5.21 µM).

With `C/C(=C\C(=O)OCc1cc([N+](=O)[O-])cc([N+](=O)[O-])c1)CC1OCC(CC2OC2C(C)C(C)O)C(O)C1O` (centres unmarked) [Example 6, 3,5-dinitrobenzyl monate A], the values for the MIC in assay [1], in assay [2] (18 h) and in assay [3] were 2.5 mg/L (≈ 4.77 µM), 1 mg/L (≈ 1.91 µM) and 0.5 mg/L (≈ 0.953 µM), respectively.
